We go through ten compounds from US20190040016A1, “INDOLE AND INDAZOLE COMPOUNDS AND THERAPEUTIC USES THEREOF” (REGENTS OF THE UNIVERSITY OF MINNESOTA, priority 2016, published 2019).

Test [1] concerns MDA-MB-231 (a human triple negative breast cancer cell line). Put plainly: In vitro cytotoxicity evaluation, MDA-MB-231. The note with it: MDA-MB-231 cells, average ± SEM of minimum three individual experiments. Format: cell-based. The text has this:
(§1) […] Cell line MDA-MB-231 (a human triple negative breast cancer cell line) and cell line 4T1 (a metastatic murine breast cancer cell line) were used for testing.

Test [2] relates to 4T1 (a metastatic murine breast cancer cell line). Kind of test: In vitro cytotoxicity evaluation, 4T1. Format: cell-based. The conditions noted are these: Mus musculus; 4T1 cells; average ± SEM of minimum three individual experiments.
Description: as §1

For `O=C(O)c1nn(-c2ccc(N(Cc3ccccc3)Cc3ccccc3)cc2)c2ccccc12` [Compound A-1], the IC50 in test [1] and in test [2] was > 25 µM in each case.

For `COC(=O)c1nn(-c2ccc(N(Cc3ccccc3)Cc3ccccc3)cc2)c2ccccc12` [Compound A-2], the IC50 in test [1] and in test [2] was > 25 µM in each case.

In the case of `C=C(COC(=O)c1nn(-c2ccc(N(Cc3ccccc3)Cc3ccccc3)cc2)c2ccccc12)C(=O)OC` [Compound A-3], the half-maximal inhibitory concentration (IC50) in test [1] and in test [2] was > 25 µM in each case.

As to `COC(=O)C(O)(CO)COC(=O)c1nn(-c2ccc(N(Cc3ccccc3)Cc3ccccc3)cc2)c2ccccc12` (centres unmarked) [Compound A-4], the values for the IC50 in test [1] and in test [2] were 2.33 ± 0.48 µM and 4.9 ± 0.42 µM, respectively.

With `C=C(COC(=O)c1nn(-c2ccc(N(Cc3ccc(Cl)cc3)Cc3ccc(Cl)cc3)cc2)c2ccccc12)C(=O)OC` [Compound A-5], the IC50 in test [1] and in test [2] was > 25 µM in each case.

Regarding `COC(=O)C(O)(CO)COC(=O)c1nn(-c2ccc(N(Cc3ccc(Cl)cc3)Cc3ccc(Cl)cc3)cc2)c2ccccc12` (centres unmarked) [Compound A-6], the IC50 in test [1] amounted to 4.51 ± 0.95 µM; in test [2], 4.8 ± 1.01 µM.

`C=C(COC(=O)c1nn(-c2ccc(N(Cc3ccc(F)cc3)Cc3ccc(F)cc3)cc2)c2ccccc12)C(=O)OC` [Compound A-7]: the IC50 in test [1] is > 25 µM; in test [2], 10.8 ± 2.28 µM.

On to `COC(=O)C(O)(CO)COC(=O)c1nn(-c2ccc(N(Cc3ccc(F)cc3)Cc3ccc(F)cc3)cc2)c2ccccc12` (centres unmarked) [Compound A-8], for which the half-inhibitory concentration (IC50) worked out at 3.02 ± 0.68 µM in test [1] and 2.87 ± 0.86 µM in test [2].

With `C=C(COC(=O)c1nn(-c2ccc(N(Cc3ccc(OC)cc3)Cc3ccc(OC)cc3)cc2)c2ccccc12)C(=O)OC` [Compound A-9], the half-maximal inhibitory concentration (IC50) in test [1] and in test [2] was > 25 µM in each case.

For the compound `COC(=O)C(O)(CO)COC(=O)c1nn(-c2ccc(N(Cc3ccc(OC)cc3)Cc3ccc(OC)cc3)cc2)c2ccccc12` (centres unmarked) [Compound A-10], the 50% inhibitory concentration (IC50) in test [1] amounted to 4.96 ± 1.19 µM; in test [2] it was 7.12 ± 1.13 µM.
